Data taken from ChEMBL document CHEMBL1138665, “Probing the activity differences of simple and complex brominated aryl compounds against 15-soybean, 15-human, and 12-human lipoxygenase” (J Med Chem, 2004).

Assays:
[1] = Inhibitory effect on soybean 15-lipoxygenase; set-up: species or system Glycine max
[2] = target: T1, Polyunsaturated fatty acid lipoxygenase ALOX12 (Homo sapiens, UniProt P18054); assay: Inhibitory effect on human platelet 12-lipoxygenase
T1 sequence (P18054 whole entry): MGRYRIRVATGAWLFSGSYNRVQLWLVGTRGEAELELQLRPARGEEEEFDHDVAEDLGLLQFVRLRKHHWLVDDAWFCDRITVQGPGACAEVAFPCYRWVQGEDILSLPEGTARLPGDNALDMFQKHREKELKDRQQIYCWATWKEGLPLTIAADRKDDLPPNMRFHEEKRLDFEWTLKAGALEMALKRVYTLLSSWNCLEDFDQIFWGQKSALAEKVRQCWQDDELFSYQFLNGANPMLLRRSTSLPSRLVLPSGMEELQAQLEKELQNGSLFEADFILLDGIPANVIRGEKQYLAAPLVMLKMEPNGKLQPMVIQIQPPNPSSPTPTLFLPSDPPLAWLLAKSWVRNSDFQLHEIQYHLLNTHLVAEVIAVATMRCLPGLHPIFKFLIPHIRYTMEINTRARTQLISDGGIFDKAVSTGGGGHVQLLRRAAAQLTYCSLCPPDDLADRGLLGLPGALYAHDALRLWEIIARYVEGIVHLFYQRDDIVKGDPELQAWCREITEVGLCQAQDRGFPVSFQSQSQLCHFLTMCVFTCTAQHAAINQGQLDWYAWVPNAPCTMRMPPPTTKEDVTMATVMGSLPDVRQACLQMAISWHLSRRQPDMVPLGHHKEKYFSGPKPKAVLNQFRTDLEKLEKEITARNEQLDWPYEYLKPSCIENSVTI

[3] = target: T2, Polyunsaturated fatty acid lipoxygenase ALOX15 (Homo sapiens, UniProt P16050); assay: Inhibitory effect on human reticulocyte 15-lipoxygenase
T2 sequence (P16050 whole entry): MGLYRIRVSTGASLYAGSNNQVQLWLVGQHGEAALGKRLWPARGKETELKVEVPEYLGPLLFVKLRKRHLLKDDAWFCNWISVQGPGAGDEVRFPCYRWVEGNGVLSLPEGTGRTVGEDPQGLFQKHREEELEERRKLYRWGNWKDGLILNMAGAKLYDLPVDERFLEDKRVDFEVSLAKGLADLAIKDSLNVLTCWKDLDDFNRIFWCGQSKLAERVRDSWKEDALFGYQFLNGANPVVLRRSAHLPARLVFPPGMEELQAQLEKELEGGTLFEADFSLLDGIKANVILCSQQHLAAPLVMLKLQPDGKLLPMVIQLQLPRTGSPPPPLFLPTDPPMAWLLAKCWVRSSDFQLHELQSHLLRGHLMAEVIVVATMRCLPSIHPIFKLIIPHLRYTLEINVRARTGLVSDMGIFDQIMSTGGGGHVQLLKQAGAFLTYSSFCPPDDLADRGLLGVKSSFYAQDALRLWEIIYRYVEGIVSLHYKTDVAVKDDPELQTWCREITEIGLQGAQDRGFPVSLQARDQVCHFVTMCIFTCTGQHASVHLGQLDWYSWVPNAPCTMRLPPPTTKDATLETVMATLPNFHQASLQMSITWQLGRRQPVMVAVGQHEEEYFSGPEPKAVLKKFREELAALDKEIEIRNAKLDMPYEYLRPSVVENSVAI

SMILES | IC50 [1] | IC50 [2] | IC50 [3]
Oc1c(Br)cccc1Br | > 100 µM | > 100 µM | > 100 µM
Oc1c(Br)cc(Br)cc1Oc1c(Br)cc(Br)c(Br)c1O | > 100 µM | 6.2 µM | 2.2 µM
Oc1c(Br)cc(Br)cc1Oc1c(O)c(Br)c(Br)c(Br)c1Br | > 100 µM | 0.41 µM | 0.79 µM
CC(C)(c1ccc(O)c(Br)c1)c1cc(Br)c(O)c(Br)c1 | > 100 µM | 7 µM | 5 µM
OCc1ccc(Br)cc1 | > 100 µM | > 100 µM | > 100 µM
CC(C)(c1cc(Br)c(O)c(Br)c1)c1cc(Br)c(O)c(Br)c1 | > 100 µM | 10 µM | 4 µM
Oc1cccc(Br)c1 | > 100 µM | > 100 µM | > 100 µM
CC(Cc1ccc(O)c(O)c1)[C@H](C)Cc1ccc(O)c(O)c1 (stereo not given in full) | 0.18 µM | – | –
Oc1ccccc1Br | > 100 µM | > 100 µM | > 100 µM
Oc1c(Br)cc(Br)c(Br)c1Oc1ccc(Br)cc1Br | 9 µM | 6 µM | 5 µM
COc1cc(Br)cc(Br)c1Oc1cc(Br)cc(Br)c1O | > 100 µM | 12 µM | 10 µM
O=C(N/C=C/c1ccc(O)c(Br)c1)/C(Cc1cc(Br)c(O)c(Oc2c(Br)cc(C/C(=N\O)C(=O)NCCc3ccc(O)c(Br)c3)cc2Br)c1)=N/O | 59 µM | 0.4 µM | 2 µM
Oc1ccc(Br)cc1Br | > 100 µM | > 100 µM | –
CCOc1ccc(Br)cc1 | > 100 µM | > 100 µM | > 100 µM
Oc1ccc(Br)cc1Oc1c(O)ccc(Br)c1Br | > 100 µM | 47 µM | –
Oc1c(Br)c(Br)c(Br)c(Br)c1Oc1ccc(Br)cc1Br | 7 µM | 0.7 µM | 1.8 µM
Oc1ccc(Br)cc1 | 48 µM | > 100 µM | 55 µM
O=C1N/C=C/c2ccc(c(Br)c2)Oc2cc(cc(Br)c2O)CCNC(=O)/C(=N/O)Cc2ccc(c(Br)c2)Oc2cc(cc(Br)c2O)C/C1=N\O [BASTADIN 7] | 27 µM | 2.3 µM | 4 µM
Oc1cc(Br)c(Br)c2c1Oc1cc(Br)cc(Br)c1O2 [SPONGIADIOXIN A] | > 100 µM | 50 µM | –
Oc1cc(Br)cc2c1Oc1cc(Br)cc(Br)c1O2 [SPONGIADIOXIN C] | > 100 µM | 30 µM | 0.8 µM
